Reference: publication PMC9896555, “Cyclic Acetals as Novel Long-Lasting Mosquito Repellents” (Journal of Agricultural and Food Chemistry, 2023)
Like-named read-outs stand apart in the source and are kept apart here.

Tested on: Aedes albopictus
Assay: Protection time at 0.17 mg/cm2, human-bait technique
Type: in vivo
Conditions: for Average PT >95% (% coefficient of variation) / Estimated 100% PT (complete protection time, mean±SE): at the dose of 0.17mg/cm2; for Estimated 100% PT (complete protection time, mean±SE): Kaplan–Meier estimate; for pest or weed control at 0.17 mg/cm2, 0.17 mg/cm2: Aedes albopictus, topical, read-out: Protection time PE%; for Protection time (95% protection): dose of 0.17 mg/cm^2, tests ended after 8 h; for repellent activity, in words: against A. albopictus
Method: To evaluate the protection time of derivatives, the PE % was measured with 100 μL of a 5% ethanol solution, corresponding to 0.17 mg/cm^2 of exposed skin, under the same laboratory conditions. Mosquito-exposed skin was treated with 100 μL of ethanol, as the negative hand control. For each volunteer (up to 8), the test was performed every hour, up to 8 h from the application. The protection time of DEET and Icaridin was measured under the same conditions. Since these trials were run in parallel with those aimed to profile the cytotoxicity of the compounds (paragraph 2.6), we interrupted the experiments for those compounds showing to have higher cytotoxicity than Icaridin and DEET as soon as the results were available. For this reason, the number of volunteers differs among the compounds.
The average time until protection which was higher than 95% protection time was considered for each compound. Moreover, for the compounds tested on at least three volunteers, the complete (100%) protection time was also estimated (SPSS 28.01.0) using the Kaplan–Meier survivor function procedure.[22]

Row | SMILES | Protection time PE% (0.17mg/cm2, 0 min) [%] | Protection time PE% (0.17mg/cm2, 1 h) [%] | Protection time PE% (0.17mg/cm2, 3 h) [%] | Protection time PE% (0.17mg/cm2, 4 h) [%] | Protection time PE% (0.17mg/cm2, 5 h) [%] | Protection time PE% (0.17mg/cm2, 6 h) [%] | Protection time PE% (0.17mg/cm2, 7 h) [%] | Protection time PE% (0.17mg/cm2, 8 h) [%] | Average PT >95% (% coefficient of variation) | Estimated 100% PT (complete protection time, mean±SE) [min] | Protection time PE% (0.17mg/cm2, 2 h) [%] | other results
1 | CCCCCCCC1OCC(C)(CO)CO1 (mixture of isomers) [9b] | 97.02 | 98.5 | 98.35 | 100 | 97.67 | 93.8 | 96.63 | 91.73 | 420 (5.6) min | 120 ± 105 |  | 
2 | CC1(CO)COC2(CCCCCCC2)OC1 [12b] |  |  |  |  |  |  |  |  | 420 (3.1) min | 240 ± 60 |  | pest or weed control at 0.17 mg/cm2, 0.17 mg/cm2 (0.17mg/cm2, 1 h): 100%; pest or weed control at 0.17 mg/cm2, 0.17 mg/cm2 (0.17mg/cm2, 2 h): 99.5%; pest or weed control at 0.17 mg/cm2, 0.17 mg/cm2 (0.17mg/cm2, 3 h): 98.7%; pest or weed control at 0.17 mg/cm2, 0.17 mg/cm2 (0.17mg/cm2, 4 h): 97.8%; pest or weed control at 0.17 mg/cm2, 0.17 mg/cm2 (0.17mg/cm2, 5 h): 97.2%; pest or weed control at 0.17 mg/cm2, 0.17 mg/cm2 (0.17mg/cm2, 6 h): 93.8%; pest or weed control at 0.17 mg/cm2, 0.17 mg/cm2 (0.17mg/cm2, 7 h): 98.2%; pest or weed control at 0.17 mg/cm2, 0.17 mg/cm2 (0.17mg/cm2, 8 h): 94.9%; Protection time (95% protection): 7 h
3 | CCCC1(CCC)OCC(CC)(CO)CO1 [7c] | 99.35 | 94.12 | 98.08 | 99.4 | 91.72 | 97.22 | 94.29 | 94.44 | 360 (3.3) min | 60 ± 34 | 97.7 | 
4 | CC(C)c1ccc(C2OCC(CO)O2)cc1 (mixture of isomers) [21a] |  |  |  |  |  |  |  |  | 0 min |  |  | 
5 | CCCCC(CC)C1OCC(CO)O1 (mixture of isomers) [10a] | 100 | 100 | 100 | 100 | 97.5 | 100 | 63.17 |  | 360 (56.8) min |  | 100 | 
6 | CCC1(CO)COC(CC(C)C)(CC(C)C)OC1 [17c] | 98.72 | 97.92 | 100 | 98.44 | 98.08 | 98.53 | 100 | 100 | 480 (0) min |  | 98.68 | Protection time (95% protection): 8 h
7 | CCCCCCCCCCCC1OCC(CO)O1 (mixture of isomers) [24a] |  |  |  |  |  |  |  |  | 0 min |  |  | 
8 | CC(C)CC1(CC(C)C)OCC(CO)O1 (racemic) [17a] | 100 | 100 | 100 | 98 | 98.39 | 92.05 | 74.4 | 43.92 | 300 (2.3) min |  | 100 | 
9 | CC(C)(C)C1CCC2(CC1)OCC(CO)O2 (mixture of isomers) [19a] |  |  |  |  |  |  |  |  | 0 min |  |  | 
10 | CCCCCCCCC1OCC(CO)O1 (mixture of isomers) [13a] | 99.47 | 100 | 99.41 | 100 | 97.22 | 99.06 | 96.82 | 82.75 | 420 (4.7) min | 270 ± 77 | 100 | 
11 | CC1(CO)COC(C)(C)OC1 [5b] |  |  |  |  |  |  |  |  | 0 min |  |  | repellent activity, in words: lack of activity
12 | CCCCCCCCCC1OCC(O)CO1 (stereo not drawn) [trans-18a.6] |  |  |  |  |  |  |  |  |  |  |  | repellent activity, in words: inactive as a repellent
13 | CCCC1(CCC)OCC(C)(CO)CO1 [7b] | 100 | 99.45 | 99.21 | 98.74 | 98.42 | 84.33 |  |  | 300 (1.4) min | 220 ± 87 | 100 | 
14 | CCCCCC1(CC)OCC(CO)O1 (mixture of isomers) [11a] | 100 | 100 | 100 | 98.12 | 93.19 | 72.96 |  |  | 240 (3.8) min | 345 ± 66 | 100 | 
15 | OCC1COC2(CCCCCCCCCCC2)O1 (racemic) [25a] |  |  |  |  |  |  |  |  | 0 min |  |  | 
16 | CC1(CCc2ccccc2)OCC(CO)O1 (mixture of isomers) [20a] |  |  |  |  |  |  |  |  | 0 min |  |  | 
17 | CC(C)=CCCC1(C)OCC(CO)O1 (mixture of isomers) [8a] | 100 | 100 | 100 | 100 | 99.39 | 100 | 97.44 | 84.95 |  |  | 100 | 
